Results reported in patent US20110263016A1, “Expansion of Embryonic Stem Cells” (priority 2008, published 2011).

Legend:
[1] = tested on: H9 hESCs; assay: Expansion of hESCs in stirred suspension bioreactors; assay type: cell-based, human
Protocol: Bioreactor Maintenance of hESCs. H9 cells passaged in static on Matrigel™ or using feeder layers were pre-treated for 1 hr with 10 μM Y-27632 (Sigma), then dissociated as described earlier. The hESCs were then inoculated into 125 ml bioreactors (NDS Technologies) at 1.8×10^4 cells/ml. The bioreactors contained 100 ml of mTeSR medium supplemented with 10 μM Y-27632 and 0.1 nM Rapamycin (Sigma), were agitated at 100 rpm and were incubated under standard conditions (37° C., 5% CO2, saturated humidity). After 24 hrs in suspension culture, the Y-27632 was removed and replaced with mTeSR medium containing 0.1 nM Rapamycin. […] The single cell suspension of hESCs was split 1:5 and inoculated into a new bioreactor containing 100 ml of mTeSR medium supplemented with 10 μM Y-27632 and 0.1 nM Rapamycin for 24 hrs.
In the bioreactor systems, hESCs (collected from static cultures containing Matrigel™ or human foreskin fibroblast feeder (HFF) cells) were inoculated at 1.8×10^4 cells/ml into 100 ml of mTeSR medium (Stemcell Technologies Inc.) and agitated at 100 rpm.

[2] = tested on: hESCs; details: cited from earlier work

Structure (SMILES): C[C@@H](N)[C@H]1CC[C@H](C(=O)Nc2ccncc2)CC1 [Y-27632]
- hESC aggregate formation ([1]; 10 μM ROCK inhibitor and 0.1 nM Rapamycin together, 1.8×10^4 cells/ml, mTeSR, 100 rpm): form tight aggregates
- hESC aggregate formation when the inhibitor is left out ([1]; ROCK inhibitor excluded from bioreactor cultures, by day 5, data not shown): noticeably fewer aggregates were observed and mainly single cells were observed by day 5
- lag phase of the cultures ([1]; exposure to ROCK inhibitor decreased from 4 days to 24 hrs): substantial decrease in the lag phase
- overall expansion ([1]; non-passaged cultures, ROCK inhibitor day 0 to day 4, collagenase every 5 days, over 20 days): 67 fold
- survival rate of dissociated, single hESCs [2]: increases the survival rate
